“Also recorded” adds a separate entry of the source.
Biological target: T1, Chicken egg lysozyme (Gallus gallus, UniProt P00698)
T1 construct: Chicken egg lysozyme (EC 3.2.1.17, FisherBiotech, 3X crystallized, lot Nos. 995417-12 and 996924-12); purchased FisherBiotech; host or cells: chicken egg (natural source)
Test: Ligand binding to polycrystalline lysozyme detected by high resolution X-ray powder diffraction
Description: The screening method of the present invention can be as follows. Two samples of polycrystalline material are produced as slurries. By “slurry” is meant, for example, a suspension of microcrystals of a macromolecule or macromolecule-ligand complex in a liquid. One of the samples includes the target protein or macromolecule and a suitable solvent. The other of the samples includes the target protein or macromolecule, one or more selected ligands and the same solvent as in the first sample. High resolution powder diffraction patterns are obtained for the polycrystalline macromolecule material in each sample. The patterns from the first and second samples are then compared to see if there is any discernable difference between the two sets of diffraction patterns beyond expected or measured experimental error or variation. When there is such a discernable difference between the two sets of diffraction patterns, that is a positive indication for the formation of a complex between the target protein or macromolecule and one or more of the selected ligands. […] In another manner, the pattern of the first sample can be inspected or analyzed to determine the positions of the diffraction peaks from the unbound form of the target protein or macromolecule, while the pattern of the second sample can be inspected or analyzed to determine the positions of the diffraction peaks from the target protein or macromolecule in the presence of the one or more selected ligands. Differences in such diffraction peaks can then be used to determine if there is a difference indicating binding of a ligand. This process is readily automated via computerized data processing routines.
Chicken egg lysozyme (EC 3.2.1.17, FisherBiotech, 3X crystallized, lot Nos. 995417-12 and 996924-12) and N-acetylglucosamine (NAG, ICN Biomedicals, Inc. lot No. R9745), pH 6.0 0.05M Na2HPO4/KH2PO4 buffer (Fisher Sci.), pH 5.0 0.05M KHphthalate/NaOH buffer (Hydrion™, Aldrich Chem.) and NaCl (“Certified for Biological Use”, Fisher Sci.) were used as received. In a typical sample preparation, a polycrystalline slurry was made by combining ˜20 mg lysozyme (1.4 μmol), about 10 mg of NAG (45 μmol) and 200 μl of 0.5M NaCl pH 6.0 buffer with an agate mortar and pestle. Polycrystalline precipitate formed within a few seconds. The slurry was loaded into a 1.5 mm diameter glass capillary, and centrifuged to pack the slurry. Excess mother liquor was removed and the capillary flame sealed to prevent subsequent solvent evaporation. In a similar way, a polycrystalline sample of unbound lysozyme in pH 6.0 0.5M NaCl buffer was prepared. Similar samples with pH 5.0 0.5M NaCl buffer were also prepared. Samples were about 8 mm long. As each sample was prepared, X-ray powder diffraction data were immediately collected at room temperature (23° C.) on beam line X3bl at the National Synchrotron Light Source, Brookhaven National Laboratory, equipped with a double Si(111) monochromator and a Ge(111) analyser; the sample was spun during data collection to ensure good powder averaging.

T1 sequence (P00698 19-147): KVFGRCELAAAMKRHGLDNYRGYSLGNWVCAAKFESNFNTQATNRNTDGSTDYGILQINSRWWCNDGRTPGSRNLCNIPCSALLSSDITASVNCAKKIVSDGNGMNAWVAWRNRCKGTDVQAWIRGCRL

- lattice parameter a smaller compared to pure lysozyme from the same solvent (pH 5.0 0.5M NaCl): 0.06%
- lattice parameter c larger compared to pure lysozyme from the same solvent (pH 5.0 0.5M NaCl): 0.15%
- lattice parameter a smaller compared to apo-protein precipitated from the same buffer (pH 6.0 0.5M NaCl): 0.21%
- lattice parameter c larger compared to apo-protein precipitated from the same buffer (pH 6.0 0.5M NaCl): 0.49%
Compound: CC(=O)N[C@H]1C(O)O[C@H](CO)[C@@H](O)[C@@H]1O (stereo partly shown) [NAG, N-acetylglucosamine]
- change in powder diffraction pattern versus unbound lysozyme (complex formation) (slurry from pH 5.0 0.5M NaCl buffer, FIG. 2): no visible change in the powder pattern; also recorded: no changes evident
- change in powder diffraction pattern versus unbound lysozyme (complex formation) (slurry from pH 6.0 0.5M NaCl buffer, FIG. 1): a structural modification has occurred associated with the formation of a NAG/lysozyme complex
- change in powder diffraction pattern versus unbound lysozyme (complex formation) (slurry from pH 6.0 0.5M NaCl buffer, FIG. 1, listed as α-NAG): easily visible changes in the powder diffraction patterns

— US20030059843A1, “High throughput screening of ligand binding to macromolecules using high resolution powder diffraction” (priority 2001, published 2003)
